# Experimental data published in ChEMBL document CHEMBL5390237, “Discovery of Selective Histone Deacetylase 1 and 2 Inhibitors: Screening of a Focused Library Constructed by Click Chemistry, Kinetic Binding Analysis, and Biological Evaluation” (J Med Chem, 2023).
# Target: Histone deacetylase 2 (Homo sapiens, UniProt Q92769)
# Test: Inhibition of full-length recombinant human C-terminal GST tagged HDAC2 expressed in Sf9 insect cells using aminoluciferin peptide substrate at 100 nM preincubated for 3 hrs followed by substrate addition and measured after 30 mins by HDAC-Glo I/II chemiluminescence assay
# Conditions: time 3.5 hrs
# Histone deacetylase 2, sequence (Q92769 whole entry): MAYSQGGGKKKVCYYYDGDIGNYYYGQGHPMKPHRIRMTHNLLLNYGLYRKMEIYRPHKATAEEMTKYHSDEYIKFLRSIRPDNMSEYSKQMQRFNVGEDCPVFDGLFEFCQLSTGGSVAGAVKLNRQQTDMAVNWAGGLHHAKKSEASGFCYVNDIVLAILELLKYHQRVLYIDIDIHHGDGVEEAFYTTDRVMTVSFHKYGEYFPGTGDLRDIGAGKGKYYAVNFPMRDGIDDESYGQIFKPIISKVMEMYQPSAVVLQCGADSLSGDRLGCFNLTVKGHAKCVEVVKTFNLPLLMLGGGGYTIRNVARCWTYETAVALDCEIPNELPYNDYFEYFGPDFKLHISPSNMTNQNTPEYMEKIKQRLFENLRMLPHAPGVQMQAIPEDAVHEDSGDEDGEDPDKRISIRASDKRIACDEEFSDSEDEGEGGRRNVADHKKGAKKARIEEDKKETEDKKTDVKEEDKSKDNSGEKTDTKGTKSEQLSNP
row,SMILES,inhibition
1,COc1ccc(Cn2cc(CCC(=O)Nc3cc(-c4cccs4)ccc3N)nn2)cc1,10%
2,Nc1ccc(-c2ccsc2)cc1NC(=O)CCc1cn(CCc2ccccc2)nn1,43%
3,Nc1ccc(-c2ccccc2)cc1NC(=O)c1cn(CCc2cccc3ccccc23)nn1,0%
4,Nc1ccc(-c2cccs2)cc1NC(=O)CCc1cn(CCCCCC(=O)O)nn1,6%
5,Nc1ccc(-c2ccsc2)cc1NC(=O)c1cn(CCc2ccccc2C(F)(F)F)nn1,0%
6,Nc1ccc(-c2ccsc2)cc1NC(=O)CCc1cn(CCCCCc2ccccc2)nn1,5%
7,Nc1ccc(-c2ccccc2)cc1NC(=O)CCc1cn(-c2ccc(Br)cc2)nn1,0%
8,Nc1ccc(-c2ccccc2)cc1NC(=O)c1cn(Cc2cccc3ccccc23)nn1,2%
9,Nc1ccc(-n2cc(CCC(=O)Nc3cc(-c4cccs4)ccc3N)nn2)cc1,25%
10,Nc1ccc(-c2ccsc2)cc1NC(=O)c1cn(Cc2cccc(-c3ccccc3)c2)nn1,0%
11,Nc1ccc(-c2cccs2)cc1NC(=O)CCc1cn(-c2ccc(Br)cc2)nn1,11%
12,Nc1ccc(-c2cccnc2)cc1NC(=O)CCc1cn(CCc2ccccn2)nn1,0%
13,Nc1ccc(-c2cccnc2)cc1NC(=O)CCc1cn(CC2CCCCC2)nn1,0%
14,Nc1ccc(-c2ccc(F)cc2)cc1NC(=O)CCc1cn(CCC2CCCCC2)nn1,2%
15,Nc1ccc(-c2cccs2)cc1NC(=O)CCc1cn(/C=C/c2ccccc2)nn1,24%
16,Nc1ccc(-c2cccs2)cc1NC(=O)CCc1cn(Cc2ccc3ccccc3c2)nn1,30%
17,Nc1ccc(-c2ccc(F)cc2)cc1NC(=O)c1cn(CCN2CCc3ccccc3C2)nn1,22%
18,Cc1cccc(CCn2cc(-c3cccc(C(=O)Nc4cc(-c5cccs5)ccc4N)c3)nn2)c1,5%
19,Nc1ccc(-c2ccccc2)cc1NC(=O)c1cn(CCc2ccc(F)cc2)nn1,0%
20,Nc1ccc(-c2ccc(F)cc2)cc1NC(=O)CCc1cn(CCCCCCCC(=O)O)nn1,15%
21,Nc1ccc(-c2ccccc2)cc1NC(=O)c1cn(Cc2ccc3ccccc3c2)nn1,1%
22,Nc1ccc(-c2cccs2)cc1NC(=O)c1cn(CCc2cccc([N+](=O)[O-])c2)nn1,13%
23,Nc1ccc(-c2ccc(F)cc2)cc1NC(=O)c1cn(CCc2cccc3ccccc23)nn1,0%
24,Nc1ccc(-c2ccccc2)cc1NC(=O)c1cn(CCN2CCOCC2)nn1,0%

row,SMILES,inhibition
1,Nc1ccc(-c2cccs2)cc1NC(=O)c1cn(-c2ccc(O)cc2)nn1,0%
2,COc1ccccc1CCn1cc(CCC(=O)Nc2cc(-c3cccs3)ccc2N)nn1,12%
3,Nc1ccc(-c2ccsc2)cc1NC(=O)CCc1cn(CS(=O)(=O)c2ccccc2)nn1,14%
4,Nc1ccc(-c2ccc(F)cc2)cc1NC(=O)CCc1cn(-c2cccc3ccccc23)nn1,0%
5,Nc1ccc(-c2ccsc2)cc1NC(=O)c1cn(CCc2ccc(F)cc2)nn1,0%
6,Nc1ccc(-c2cccs2)cc1NC(=O)c1ccc(-c2cn(CCCCCc3ccccc3)nn2)cc1,0%
7,Nc1ccc(-c2cccs2)cc1NC(=O)CCc1cn(CC(=O)Nc2ccc(F)cc2)nn1,30%
8,Nc1ccc(-c2cccs2)cc1NC(=O)c1cn(CCc2ccccc2)nn1,9%
9,Nc1ccc(-c2ccsc2)cc1NC(=O)c1cn(CC(=O)Nc2ccc(F)cc2)nn1,8%
10,Nc1ccc(-c2cccnc2)cc1NC(=O)CCc1cn(CCc2ccc(C(F)(F)F)cc2)nn1,0%
11,Nc1ccc(-c2ccccc2)cc1NC(=O)CCc1cn(CCc2ccc([N+](=O)[O-])cc2)nn1,13%
12,Nc1ccc(-c2cccs2)cc1NC(=O)c1ccc(-c2cn(Cc3ccc4ccccc4c3)nn2)s1,3%
13,Nc1ccc(-c2cccs2)cc1NC(=O)CCc1cn(CCc2ccc(C(F)(F)F)cc2)nn1,5%
14,Nc1ccc(-c2cccs2)cc1NC(=O)c1cccc(-c2cn(CCC3CCCC3)nn2)c1,0%
15,Nc1ccc(-c2cccs2)cc1NC(=O)c1ccc(-c2cn(CCc3ccc(Cl)cc3)nn2)cc1,18%
16,Nc1ccc(-c2ccsc2)cc1NC(=O)CCc1cn(CCc2ccc(Cl)cc2)nn1,2%
17,Nc1ccc(-c2ccccc2)cc1NC(=O)CCc1cn(CCc2cccc3ccccc23)nn1,0%
18,Nc1ccc(-c2ccsc2)cc1NC(=O)CCc1cn(Cc2cccc(-c3ccccc3)c2)nn1,0%
19,Nc1ccc(-c2ccc(F)cc2)cc1NC(=O)c1cn(CCc2cccc(Cl)c2)nn1,0%
20,Nc1ccc(-c2cccs2)cc1NC(=O)c1ccc(-c2cn(CCC3CCCC3)nn2)cc1,0%
21,Nc1ccc(-c2ccc(F)cc2)cc1NC(=O)CCc1cn(CCC2CCCC2)nn1,0%
22,Nc1ccc(-c2cccnc2)cc1NC(=O)CCc1cn(Cc2ccc3ccccc3n2)nn1,3%
23,Nc1ccc(-c2ccsc2)cc1NC(=O)c1cn(CC23CC4CC(CC(C4)C2)C3)nn1,0%
24,Cc1ccc(-n2cc(C(=O)Nc3cc(-c4ccccc4)ccc3N)nn2)cc1C,0%

row,SMILES,inhibition
1,Nc1ccc(-c2cccs2)cc1NC(=O)CCc1cn(-c2ccc(I)cc2)nn1,8%
2,Nc1ccc(-c2cccs2)cc1NC(=O)c1cccc(-c2cn(CCN3CCc4ccccc4C3)nn2)c1,20%
3,Nc1ccc(-c2cccnc2)cc1NC(=O)CCc1cn(CCc2ccccc2C(F)(F)F)nn1,0%
4,CCc1ccc(Cn2cc(C(=O)Nc3cc(-c4ccsc4)ccc3N)nn2)cc1,0%
5,Nc1ccc(-c2cccnc2)cc1NC(=O)CCc1cn(-c2ccc(Br)cc2)nn1,2%
6,Nc1ccc(-c2ccc(F)cc2)cc1NC(=O)CCc1cn(CCc2ccccc2Cl)nn1,4%
7,Nc1ccc(-c2cccs2)cc1NC(=O)c1ccc(-c2cn(CCc3ccc(F)cc3)nn2)cc1,14%
8,Nc1ccc(-c2cccs2)cc1NC(=O)CCc1cn(CCC2CCCCC2)nn1,4%
9,Nc1ccc(-c2cccs2)cc1NC(=O)c1ccc(-c2cn(CCc3cccc([N+](=O)[O-])c3)nn2)cc1,25%
10,Nc1ccc(-c2cccs2)cc1NC(=O)CCc1cn(CCc2ccc([N+](=O)[O-])cc2)nn1,27%
11,Nc1ccc(-c2ccccc2)cc1NC(=O)CCc1cn(CCCCCC(=O)O)nn1,0%
12,Nc1ccc(-c2cccnc2)cc1NC(=O)CCc1cn(CCCc2ccccc2)nn1,15%
13,Nc1ccc(-c2cccs2)cc1NC(=O)c1cn(CCCCC(=O)O)nn1,3%
14,Nc1ccc(-c2cccs2)cc1NC(=O)c1ccc(-c2cn(CCc3cccc(Cl)c3)nn2)s1,6%
15,COc1ccc(Cn2cc(-c3cccc(C(=O)Nc4cc(-c5cccs5)ccc4N)c3)nn2)cc1,0%
16,Nc1ccc(-c2cccs2)cc1NC(=O)c1ccc(-c2cn(-c3cccc4ccccc34)nn2)cc1,0%
17,CCc1ccc(Cn2cc(CCC(=O)Nc3cc(-c4cccnc4)ccc3N)nn2)cc1,5%
18,Nc1ccc(-c2cccs2)cc1NC(=O)c1ccc(-c2cn(CCc3ccsc3)nn2)s1,27%
19,Nc1ccc(-c2cccs2)cc1NC(=O)c1cn(CCCCCCC(=O)O)nn1,7%
20,Nc1ccc(-c2ccccc2)cc1NC(=O)c1cn(CCC2CCCC2)nn1,0%
21,Nc1ccc(-c2cccs2)cc1NC(=O)c1ccc(-c2cn(Cc3nc4ccccc4[nH]3)nn2)cc1,37%
22,Nc1ccc(-c2cccs2)cc1NC(=O)c1cccc(-c2cn(CC(=O)c3ccccc3)nn2)c1,7%
23,Nc1ccc(-c2ccsc2)cc1NC(=O)c1cn(CCCCCCCC(=O)O)nn1,10%
24,Nc1ccc(-c2cccs2)cc1NC(=O)c1ccc(-c2cn(CCc3c[nH]c4ccccc34)nn2)cc1,19%

row,SMILES,inhibition
1,Nc1ccc(-c2cccs2)cc1NC(=O)c1cn(C[S+]([O-])c2ccccc2)nn1 (stereo not given),8%
2,Nc1ccc(-c2ccsc2)cc1NC(=O)CCc1cn(-c2ccc(O)cc2)nn1,16%
3,Cc1ccc(CCn2cc(CCC(=O)Nc3cc(-c4cccs4)ccc3N)nn2)cc1,30%
4,Nc1ccc(-c2ccc(F)cc2)cc1NC(=O)CCc1cn(CCN2CCc3ccccc3C2)nn1,18%
5,Nc1ccc(-c2ccc(F)cc2)cc1NC(=O)c1cn(CCCCCc2ccccc2)nn1,1%
6,Nc1ccc(-c2ccc(F)cc2)cc1NC(=O)c1cn(CCc2ccc(Cl)cc2)nn1,0%
7,Nc1ccc(-c2cccs2)cc1NC(=O)c1ccc(-c2cn(CCc3ccccc3[N+](=O)[O-])nn2)cc1,33%
8,Nc1ccc(-c2cccs2)cc1NC(=O)c1cccc(-c2cn(CCc3ccccc3)nn2)c1,17%
9,Nc1ccc(-c2ccc(F)cc2)cc1NC(=O)c1cn(CCc2cccc(C(F)(F)F)c2)nn1,0%
10,Nc1ccc(-c2cccs2)cc1NC(=O)c1ccc(-c2cn(-c3ccc(Br)cc3)nn2)cc1,0%
11,Nc1ccc(-c2ccccc2)cc1NC(=O)c1cn(-c2ccc(Br)cc2)nn1,0%
12,Nc1ccc(-c2cccs2)cc1NC(=O)c1cccc(-c2cn(Cc3cccc4ccccc34)nn2)c1,14%
13,Nc1ccc(-c2cccs2)cc1NC(=O)CCc1cn(Cc2cccc(C(=O)O)c2)nn1,3%
14,Nc1ccc(-c2cccs2)cc1NC(=O)c1cccc(-c2cn(C[S+]([O-])c3ccccc3)nn2)c1 (stereo not given),6%
15,Nc1ccc(-c2cccnc2)cc1NC(=O)CCc1cn(CCC2CCCCC2)nn1,5%
16,Nc1ccc(-c2cccs2)cc1NC(=O)c1cn(CC2CCCCC2)nn1,1%
17,Cc1ccc(CCn2cc(-c3ccc(C(=O)Nc4cc(-c5cccs5)ccc4N)s3)nn2)cc1,22%
18,Nc1ccc(-c2cccs2)cc1NC(=O)c1cccc(-c2cn(Cc3cc4ccccc4s3)nn2)c1,0%
19,Nc1ccc(-c2cccnc2)cc1NC(=O)CCc1cn(Cc2ccc(OC(F)(F)F)cc2)nn1,3%
20,Nc1ccc(-c2cccs2)cc1NC(=O)CCc1cn(-c2ccc(O)cc2)nn1,12%
21,Cc1cccc(C)c1NC(=O)Cn1cc(C(=O)Nc2cc(-c3ccc(F)cc3)ccc2N)nn1,33%
22,Nc1ccc(-c2ccccc2)cc1NC(=O)c1cn(CC23CC4CC(CC(C4)C2)C3)nn1,0%
23,Nc1ccc(-c2cccs2)cc1NC(=O)CCc1cn(CC23CC4CC(CC(C4)C2)C3)nn1,9%
